From patent publication US20210093645A1, “COMBINATION ANTI CANCER THERAPY WITH AN IAP ANTAGONIST AND AN ANTI PD-1 MOLECULE” (Debiopharm International S.A., priority 2017, published 2021)
Entries after “also recorded” stand apart in the source; their conditions may differ. Numbered stars: 1 amine (or outer) side, 2 acyl side, 3 side chain; on linkers, the order of the positions; unused ones are H or OH. Bridge positions count the residues as written; N and C are the ends. Square brackets hold non-standard residues; d marks the D form. Peptide text beside a SMILES is read from it. I, II: the chains in the order shown. Hexamethylenediamine = C(CCCN[*:2])CCN[*:1]; Dip = N[C@H](C(=O)O)C(c1ccccc1)c1ccccc1; Chg = N[C@H](C(=O)O)C1CCCCC1; NMeA = CN[C@@H](C)C(=O)O

What was measured:
antigen-presenting cells = conditions: cited from earlier work
CD8+ T-lymphocytes = test: immunohistochemistry of tumor biopsies before and after Debio 1143, CD8 staining; assay type: in vivo, human; conditions: head & neck cancer patients, n=12; 200 mg Debio 1143 p.o. daily day 1 to 15; biopsy after vs before treatment
Description: (§1) The study enrolled adult patients with newly diagnosed histologically proven squamous cell carcinoma of the oral cavity, oropharynx, hypopharynx or larynx. During a screening period of two weeks (days −14 to −1), a tumor biopsy was taken and analyzed. Treatment was from day 1 to day 15 (+/−2 days) and consisted (in one arm) of daily administration p.o. of 200 mg Debio 1143. At the end of this treatment period, a second tumor biopsy was taken and analyzed, and the patients underwent surgery. T cells were identified using CD3 rabbit mAb 2GV6 from Ventana Roche (provided as a ready-to-use solution). Slides were processed on a Ventana Benchmark Ultra automaton. Exposure to antibody was 20 min. Pretreatment of the slides (64 min) was with cell conditioning solution CC1 (Ventana); the Optiview system (Ventana) (chromogen: DAB) was employed for visualization of the signal. Staining of CD8 and CD4 T cells was by the same protocol. The CD8 antibody was the SP57 rabbit mAb, and the CD4 antibody was the SP35 rabbit mAb. Both antibodies were from Ventana Roche and were provided as ready-to-use solutions. The antibody selected for PD-1 detection was the NAT105 mouse mAb that was also provided as a ready-to-use solution (Cell Marque). The protocol for PD-1 detection was the same as that used for CD3 staining, except that antibody exposure and pretreatment times were each 16 min.

[1] = test system: syngeneic colon carcinoma cell line MC38; test: MC38 syngeneic tumor model, Debio 1143 pretreatment then anti-PD-L1 (Example 2); assay type: in vivo, C57BL/6J mice
Description: Five groups (n=8) of adult female C57BL/6J mice (obtained from Shanghai Lingchang Bio-Technology Co.) were inoculated in the right lower flank with 1×10^6 cells of the syngeneic colon carcinoma cell line MC38. When average tumor size reached about 50 mm^3 (day 1), animals received either pretreatment consisting of p.o. SMAC mimetic Debio 1143 (Debiopharm) at a dose of 100 mg/kg or vehicle as indicated in Table 1. The dosing was repeated on each day for 7 days (day 1-7). On the subsequent day (day 8), animals of a vehicle-treated group and a Debio 1143-pretreated group were given i.p. 10 mg/kg of control antibody rlgG2b (Clone: LTF-2, BioXcell). Control antibody was administered twice weekly until the end of the study. Another set of two groups (vehicle- and Debio 1143-pretreated animals) received i.p. 10 mg/kg of anti-PD-L1 antibody (Mouse surrogate antibody, anti-mouse PD-L1, Clone: 10F.9G2, BioXcell). Administration was repeated twice weekly as for the control antibody. A final group of Debio 1143-pretreated animals received both anti-PD-L1 antibody as well as was continued on daily Debio 1143. Tumor volumes and body weights were assessed trice weekly. Tumor size was measured in two dimensions using a caliper, and the volume was expressed in mm^3 using the formula: V=0.5 a×b^2 where a and b are the long and short diameters of the tumor, respectively.

PD-L1 = test: immunohistochemistry of tumor biopsies before and after Debio 1143, PD-L1 staining; assay type: in vivo, human; conditions: head & neck cancer patients, n=12; 200 mg Debio 1143 p.o. daily day 1 to 15; biopsy after vs before treatment
Description: (§2) The study enrolled adult patients with newly diagnosed histologically proven squamous cell carcinoma of the oral cavity, oropharynx, hypopharynx or larynx. During a screening period of two weeks (days −14 to −1), a tumor biopsy was taken and analyzed. Treatment was from day 1 to day 15 (+/−2 days) and consisted (in one arm) of daily administration p.o. of 200 mg Debio 1143. At the end of this treatment period, a second tumor biopsy was taken and analyzed, and the patients underwent surgery. Biopsies were analyzed by immunohistochemical methods. Staining for cIAP1 was carried out using a Dako autostainer automaton (Agilent). The EPR4673 […] mAb (Abcam) was utilized at a 1/100 dilution, and tissue slides were exposed to the antibody for 20 min. Pretreatment of the slides was with EnVision FLEX Target Retrieval Solution, Low pH; the EnVision FLEX system (chromogen: DAB) was employed for visualization of the signal. EnVision Flex system and reagent were from Agilent. The same protocol was applied for PD-L1 staining. The E1 L3N rabbit mAb (Cell Signaling Technology) was used at a 1/500 dilution.

[2] = test system: syngeneic colon carcinoma cell line CT26; test: CT26 syngeneic tumor model, Debio 1143 pretreatment then anti-PD-1 (Example 4); assay type: in vivo, BALB/c mice
Description: Five groups (n=8) of adult female BALB/c mice (obtained from Shanghai Lingchang Bio-Technology Co.) were inoculated in the right lower flank with 0.5×10^6 cells of the syngeneic colon carcinoma cell line CT26. When average tumor size reached about 50 mm^3 (day 1), animals received either pretreatment consisting of p.o. SMAC mimetic Debio 1143 (Debiopharm) at a dose of 100 mg/kg or vehicle as indicated in Table 3a. The dosing was repeated on each day for 7 days (day 1-7). […] Another set of two groups (vehicle- and Debio 1143-pretreated animals) received biweekly i.p. 10 mg/kg of anti-PD-1 antibody (Mouse surrogate antibody, anti-mouse PD-1, Clone: RMP1-14, BioXcell). A final group of Debio 1143-pretreated animals received both anti-PD-1 antibody as well as was continued on daily Debio 1143. Tumor volumes and body weights were assessed trice weekly. Tumor size was measured in two dimensions using a caliper, and the volume was expressed in mm^3 using the formula: V=0.5 a×b^2 where a and b are the long and short diameters of the tumor, respectively.

CD4+ T-lymphocytes = test: immunohistochemistry of tumor biopsies before and after Debio 1143, CD4 staining; assay type: in vivo, human; conditions: head & neck cancer patients, n=12; 200 mg Debio 1143 p.o. daily day 1 to 15; biopsy after vs before treatment
Description: as §1

PD-1 = test: immunohistochemistry of tumor biopsies before and after Debio 1143, PD-1 staining; assay type: in vivo, human; conditions: head & neck cancer patients, n=12; 200 mg Debio 1143 p.o. daily day 1 to 15; biopsy after vs before treatment
Description: as §1

cIAP1 = biological target: T1, cIAP1 (Homo sapiens, UniProt Q13490); test: immunohistochemistry of tumor biopsies before and after Debio 1143, cIAP1 staining; assay type: in vivo; conditions: head & neck cancer patients, n=12; 200 mg Debio 1143 p.o. daily day 1 to 15; biopsy after vs before treatment
T1 construct: from tissue; host or cells: tumor biopsies of patients with squamous cell carcinoma of the head and neck
T1 sequence (Q13490 whole entry): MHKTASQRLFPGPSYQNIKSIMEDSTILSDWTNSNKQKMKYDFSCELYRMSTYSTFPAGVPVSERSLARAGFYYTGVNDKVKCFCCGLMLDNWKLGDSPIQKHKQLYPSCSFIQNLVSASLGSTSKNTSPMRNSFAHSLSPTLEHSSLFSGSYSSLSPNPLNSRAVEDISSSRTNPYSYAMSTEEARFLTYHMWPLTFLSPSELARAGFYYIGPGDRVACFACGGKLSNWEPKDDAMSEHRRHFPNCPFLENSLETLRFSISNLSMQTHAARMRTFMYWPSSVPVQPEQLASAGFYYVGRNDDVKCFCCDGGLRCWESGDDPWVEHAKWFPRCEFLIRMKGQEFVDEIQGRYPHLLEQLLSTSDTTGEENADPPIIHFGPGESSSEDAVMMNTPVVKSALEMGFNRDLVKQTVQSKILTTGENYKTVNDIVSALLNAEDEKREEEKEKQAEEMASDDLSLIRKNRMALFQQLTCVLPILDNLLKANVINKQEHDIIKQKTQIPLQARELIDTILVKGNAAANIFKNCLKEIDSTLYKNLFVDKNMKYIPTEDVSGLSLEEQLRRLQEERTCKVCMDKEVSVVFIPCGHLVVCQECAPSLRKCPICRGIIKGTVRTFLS
Description: as §2

[3] = in vivo; cited from earlier work
T-cell = conditions: in the context of a primary T-cell receptor stimulus; cited from earlier work
[4] = test system: syngeneic colon carcinoma cell line MC-38; test: MC38 syngeneic tumor model, birinapant or LCL161 pretreatment then anti-PD-L1 (Example 3); assay type: in vivo, C57BL/6J mice
Description: 72 adult female C57BL/6J mice (obtained from Shanghai Lingchang Bio-Technology Co.) were inoculated subcutaneously at the right lower flank with 1×10^6 cells of the syngeneic colon carcinoma cell line MC-38 in 0.1 ml of PBS. Tumor volumes were measured three times weekly in two dimensions using a caliper, and the volume was expressed in mm^3 using the formula: V=(L×W×W)/2, where V is tumor volume, L is tumor length (the longest tumor dimension) and W is tumor width (the longest tumor dimension perpendicular to L). All animals were randomly allocated to the 9 different study groups with a mean tumor size of 52 mm^3 based on the “Matched distribution” randomization method (StudyDirector™ software, version 3.1.399.19) and treatments started (denoted as day 1). Dosing as well as tumor and body weight measurement were conducted in a Laminar Flow Cabinet.
On day 1, part of the animals received either a 1 week pretreatment consisting of i.p. SMAC mimetic birinapant at a dose of 30 mg/kg, or its vehicle, in a biweekly schedule as indicated in Table 2. The other part of the animals received either a 1 week pretreatment consisting of p.o. SMAC mimetic LCL161 at a dose of 75 mg/kg, or its vehicle, in a biweekly schedule as indicated in Table 2.
On day 8, vehicle or SMAC mimetic pretreated animals were then further treated until study end with either biweekly i.p. 10 mg/kg of control antibody rlgG2b (Clone: LTF-2, BioXcell), or biweekly i.p. 10 mg/kg of anti-PD-L1 antibody (Mouse surrogate antibody, anti-mouse PD-L1, Clone: 10F.9G2, BioXcell). 1 group of animals that had received 1 week of birinapant pretreatment, and 1 group of animals that had received 1 week of LCL161 pretreatment, were each continued on the respective SMAC mimetic during the period of anti-PD-L1 treatment until study end.

melanoma = melanoma patients; cited from earlier work
[5] = test system: advanced treatment-refractory NSCLC; conditions: advanced treatment-refractory NSCLC patients; cited from earlier work
RCC = RCC patients; cited from earlier work

CN[C@@H](C)C(=O)N[C@H](C(=O)N1CCC[C@H]1C(=O)N[C@H](C(=O)NCCCCCCNC(=O)[C@@H](NC(=O)[C@@H]1CCCN1C(=O)[C@@H](NC(=O)[C@H](C)NC)C1CCCCC1)C(c1ccccc1)c1ccccc1)C(c1ccccc1)c1ccccc1)C1CCCCC1 [BV6] (I: H-[NMeA][Chg]P[Dip] / II: H-[NMeA][Chg]P[Dip]; linker I:C-II:C via Hexamethylenediamine)
function of antigen-presenting cells (dendritic cell maturation, type-II to type-I macrophage conversion) (antigen-presenting cells): modulate the function of antigen-presenting cells

CN[C@@H](C)C(=O)N[C@H]1CN(C(=O)CC(C)C)CC[C@H]2CC[C@@H](C(=O)NC(c3ccccc3)c3ccccc3)N2C1=O [Debio 1143]
number of CD8+ T cells in the tumor microenvironment (CD8+ T-lymphocytes): increase in CD8+ T cell number being significant; also recorded: increases the number
anti-cancer effect (median tumor volume) ([1]; Debio 1143 100 mg/kg p.o. QD day 1-7 pretreatment alone, then control antibody rlgG2b (group 2)): modest anti-cancer effect
anti-cancer effect (median tumor volume) ([1]; Debio 1143 100 mg/kg p.o. QD day 1-7 pretreatment, then anti-PD-L1 10 mg/kg i.p. BIW (group 4)): profound anti-cancer effect; also recorded: sensitizes MC38 tumors to a subsequent treatment with an anti-PD-L1 antibody
anti-cancer effect (median tumor volume) ([1]; Debio 1143 pretreatment day 1-7, then anti-PD-L1 plus continued daily Debio 1143 (group 5), compared with group 4): small additional benefit
frequency / number of PD-L1-expressing tumor cells (PD-L1): also increased; also recorded: increases the number
percentage / number of immune cells expressing PD-L1 in tumor (PD-L1): increased significantly; also recorded: increases the number
anti-cancer effect (median tumor volume) ([2]; Debio 1143 100 mg/kg p.o. QD day 1-7 pretreatment alone, then oral vehicle (group 3)): modest anti-cancer effect
anti-cancer effect (median tumor volume) ([2]; Debio 1143 100 mg/kg p.o. QD day 1-7 pretreatment, then anti-PD-1 10 mg/kg i.p. BIW (group 4)): small additional benefit to Debio 1143 pretreatment alone; also recorded: sensitizes CT26 tumors to a subsequent treatment with an anti-PD-1 antibody
anti-cancer effect (median tumor volume) ([2]; Debio 1143 pretreatment, then anti-PD-1 plus continued daily Debio 1143 (group 5)): significant additional benefit
number of CD4+ T cells in the tumor microenvironment (CD4+ T-lymphocytes): both increased; also recorded: increases the number
percentage / number of immune cells expressing PD-1 in tumor (PD-1): increased significantly; also recorded: increases the number
levels of cIAP1 in the tumors (cIAP1): reduced levels of cIAP1 in the tumors of most patients; also recorded: induces the degradation of cIAP1

CN[C@@H](C)C(=O)N[C@H](C(=O)N1CC[C@H]2CCN(CCc3ccccc3)C[C@H]21)C1CCCCC1 [LBW242]
efficacy in a prophylactic cancer vaccine model [3]: enhanced efficacy
anti-tumor immune responses (T-cell proliferation, co-stimulation, activation) (T-cell): increase anti-tumor immune responses

CN[C@@H](C)C(=O)N[C@H](C(=O)N1CCC[C@H]1c1nc(C(=O)c2ccc(F)cc2)cs1)C1CCCCC1 [LCL161]
anti-cancer effect (median tumor volume) ([4]; LCL161 75 mg/kg p.o. BIW 1 week pretreatment alone, then control antibody rlgG2b (group 7)): modest anti-cancer effect
anti-cancer effect (median tumor volume) ([4]; LCL161 75 mg/kg p.o. BIW 1 week pretreatment, then anti-PD-L1 10 mg/kg i.p. BIW (group 8)): small additional benefit to LCL161 pretreatment alone; also recorded: sensitizes MC38 tumors to a subsequent treatment with an anti-PD-L1 antibody
anti-cancer effect (median tumor volume) ([4]; LCL161 pretreatment, then anti-PD-L1 plus continued LCL161 (group 9)): significant additional benefit

CC[C@H](NC(=O)[C@H](C)NC)C(=O)N1C[C@@H](O)C[C@H]1Cc1c(-c2[nH]c3cc(F)ccc3c2C[C@@H]2C[C@H](O)CN2C(=O)[C@H](CC)NC(=O)[C@H](C)NC)[nH]c2cc(F)ccc12 [birinapant]
anti-cancer effect (median tumor volume) ([4]; birinapant 30 mg/kg i.p. BIW 1 week pretreatment alone, then control antibody rlgG2b (group 2)): modest anti-cancer effect
anti-cancer effect (median tumor volume) ([4]; birinapant 30 mg/kg i.p. BIW 1 week pretreatment, then anti-PD-L1 10 mg/kg i.p. BIW (group 4)): singificant anti-cancer effect; also recorded: sensitizes MC38 tumors to a subsequent treatment with an anti-PD-L1 antibody
anti-cancer effect (median tumor volume) ([4]; birinapant pretreatment, then anti-PD-L1 plus continued birinapant (group 5), compared with group 4): small additional benefit
function of antigen-presenting cells (dendritic cell maturation, type-II to type-I macrophage conversion) (antigen-presenting cells): modulate the function of antigen-presenting cells

Nivolumab: fully human IgG4 anti-PD-1 monoclonal antibody from Bristol-Myers Squibb/Ono Pharmaceuticals
Objective response rate (melanoma): 31%
Overall survival (melanoma): 16.8 months
Objective response rate [5]: 17%
Overall survival [5]: 9.9 months
Objective response rate (RCC): 20%
Overall survival (RCC): 22.4 months
